# Results published in US20130224754A1, “METHOD FOR THE SELECTION OF COMPOUNDS USEFUL FOR THE TREATMENT OF PSYCHIATRIC AND NEURODEGENERATIVE DISEASES” (UNIVERSITA' DEGLI STUDI DI TRIESTE, priority 2010, published 2013).
# B1: Brain-derived neurotrophic factor (protein, UniProt P23560 19-247, looked up)
# Neurotrophic factor BDNF …: APMKEANIRGQGGLAYPGVRTHGTLESVNGPKAGSRGLTSLADTFEHVIEELLDEDQKVRPNEENNKDADLYTSRVMLSSQVPLEPPLLFLLEEYKNYLDAANMSMRVRRHSDPARRGELSVCDSISEWVTAADKKTAVDMSGGTVTVLEKVPVSKGQLKQYFYETKCNPMGYTKEGCRGIDKRHWNSQCRTTQSYVRALTMDSKKRIGWRFIRIDTSCVCTLTIKRGR
# notes: growth and trophic factor of the neurotrophin family, used as agonist at 50 ng/ml
# B2: Neurotrophin-3 (protein, UniProt P20783 139-257, looked up)
# Neurotrophin-3: YAEHKSHRGEYSVCDSESLWVTDKSSAIDIRGHQVTVLGEIKTGNSPVKQYFYETRCKEARPVKNGCRGIDDKHWNSQCKTSQTYVRALTSENNKLVGWRWIRIDTSCVCALSRKIGRT
# notes: neurotrophin, used at 50 ng/ml
# Assays:
# [1] = tested on: BDNF 5′UTR splice variants; experiment: Dual luciferase assay, response of BDNF 5′UTR splice variants to agonists (collective statements); details: undifferentiated SH-SY5Y; for translation of the other BDNF transcripts (other than exon2C): DHPG 50 μM, AMPA 30 μM, NMDA 30 μM
# Protocol: (§3) Plasmids were transfected into SH-SY5Y cells using lipofectamine 2000 (Invitrogen) to obtain a transient transfection. The relative quantity of DNA to lipofectamine has been determined and the optimal ratio was found at 0.2 μg of DNA and 0.5 μl of lipofectamine for each well of a 96 multiwell plate. At the time of transfection SH-SY5Y cells were around 70-75% of confluency. According to the Promega protocol for luciferase activity measurements, each construct-containing Fluc was transfected together with the normalizing Rluc construct with a 10:1 ratio (0.2 μg Fluc containing vector together with 0.02 μg of pN1-Rluc vector). The DNA (0.2 μg) was mixed with 25 μl of native MEM medium and incubated for 5 minutes at room temperature. The two solutions were then mixed and incubated for 20 minutes at room temperature to allow the formation of DNA-containing micelles. Then, 50 μl of such solution were added in each well to cells and incubated for 24 h at 37° C. After 24 h transfection, the medium was removed and replaced with fresh culture medium.
# (§4) To determine the effects of receptors activation on translation controlled by the different BDNF 5′UTR sequences, cells were treated for 3 hours with 50 mM KCl to induce generalized cell depolarization.
# (§5) Luciferase assay was performed according to the manufacturer's instructions (Promega). At the time of luciferase assay, the growth medium was removed from the cultured cells and a sufficient volume of PBS 1× was applied to wash the surface of the culture vessel. Then, the PBS 1× solution was completely removed and the cells lysis was started by adding 20 μl of PLB (passive lysis buffer) into each well. After adding the PLB solution, the culture plate was placed on an orbital shaker with gentle shaking at room temperature for 15 minutes to cover uniformly the cell monolayer with PLB. After lysis, 100 μl of Luciferase Assay Reagent II (LARII) were dispensed in each well and Firefly luciferase activity was measured using the Glo Max Multi luminometer with two injectors (Promega Corporation).
# (§6) After quantifying the Firefly luminescence, this reaction was quenched and simultaneously, the Renilla luciferase reaction was initiated by adding 100 μl Stop & Glo Reagent (Promega) to the same well. Then, Renilla luciferase activity was measured using the Glo Max Multi luminometer with two injectors (Promega Corporation).
# (§7) One day prior transfection, undifferentiated neuro-blastoma SH-SY5Y cells were seeded into a 96-well white plate with clear bottom (PBI International) at a confluency of 50-60% and cultured overnight. Plasmids containing the different BDNF 5′UTR exons were then transiently transfected into SH-SY5Y cells using Lipofectamine™ 2000 (Invitrogen) at high cell density (70-75%), according to the manufacturer's protocol. […]
# [2] = tested on: pN1-exon6-Fluc-3′UTR long construct; experiment: Inhibition of KCl-induced translation of the ex6-Fluc-3′UTRlong construct; type: cell-based, rat; details: for prevention of KCl-induced increase in translation of pN1-exon6-Fluc-3′UTR long: 30 min pre-treatment prior 3 h 20 mM KCl, rapamycin 20 nM, U0126 50 μM, KN62 20 μM, GF 50 nM, Aurora A inhibitor 10 μM, PP2 20 μM
# Excerpt: The present invention can be used not only to identify compounds able to increase BDNF translation, but also to screen for potential inhibitors of BDNF protein production. To this aim a series of vectors were constructed which recapitulate the physiological regulation of BDNF translation in that the firefly luciferase gene was flanked both by 5′UTR regions as well as 3′UTR. These constructs included:
# Inhibitors of 5′UTR regulation are: rapamycin (rap)=mTOR inhibitor (Takei, Inamura et al. 2004); U0126=MEK inhibitor (Kanhema, Dagestad et al. 2006); GF=PKC inhibitor (Heikkila, Jalava et al. 1993).
# Inhibitors of 3′UTR regulation: KN62=CaMKII inhibitor (Lu, Hidaka et al. 1996); AuA=Aurora A inhibitor (Soncini, Carpinelli et al. 2006) and PP2=Src tyrosine kinase inhibitor (Perkinton, Sihra et al. 1999).
# Aurora kinase A inhibitor (PHA-680632) was a gift from Nerviano Medical Sciences S.r.l. (Milan, Italy); PP2 (1-tert-butyl-3-(4-chlorophenyl)-1H-pyrazolo[3-4]pyrimidin-4-amine), rapamycin was purchased from Ascent Scientific (Bristol, UK), Bisindolylmaleimide I (2-[1-(3-dimethylaminopropyl)-1H-indol-3-yl]-3-(1H-indol-3yl)-maleimide, GF 109203X, Gö 6850), KN62 (1-[N,O-bis-5-isoquinolinesulfonyl)-N-methyl-L-tyrosyl]-4-phenylpiperazine), U0126 (1,4-diamino-2,3-dicyano-1,4-bis(2-aminophenylthio)butadiene), and U0124 (1,4-Diamino-2,3-dicyano-1,4-bis(methylthio)butadiene) from Calbiochem (Damstadt, Germany).
# Relative luciferase units (RLU) describe in absolute values for the Fluc/Rluc (F/R) ratio obtained from each condition—basal, 3 h of 20 mM KCl, 30 min of treatment—rapamycin 20 nM, U0126 50 μM, KN62 20 μM, GF 50 nM, Aurora A inhibitor 10 μM or PP2 20 μM, prior 3 h of depolarization. A value of 1.0 was assumed for the basal condition. The represented data (mean+standard error) corresponds to three independent experiments in quadruplicate ***, P<0.001; **, P<0.01; *, P<0.05, One Way Anova followed by a multiple comparison versus Fluc construct procedure with Holm-Sidak's method.
# [3] = tested on: SH-SY5Y human neuroblastoma cells; experiment: MTT viability assay; type: cell-based; details: 3 h; ACh 10 μM, NE 50 uM, DOPA 40 μM, BDNF and NT3 both 50 ng/ml
# Protocol: Using a 96-well plate 100 μl of SHSY-5Y cells were distributed per well, maintaining them overnight at 37° C. in a 5% CO2-humified incubator. […] After that, 20 μl of aseptically prepared 5 mg/mL MTT was added, adding it also to an additional quadruplicate of wells without cells, as an internal control. The cells were again incubated at 37° C. this time for 2 h, allowing the formation of formazan crystals by the mitochondrial dehydrogenase of viable cells. Afterwards, the media was carefully removed, and the formazan crystals were solubilised by adding 200 μl of MTT solvent per well, a solution that contains acidified isopropanol (4 mM HCl and 0.1% Nondet P-40 in isopropanol). The crystals were further dissolved by gently pipetting the solution up and down being the resulting purple solution spectrophotometrically measured at 570 nm. An increased absorbance can therefore be directly correlated to the cell number, allowing one to determine the cellular viability after a specific treatment. Since the method is dependent on the physiological state of the cells, the assay was always performed after checking the cellular morphology prior treatment. Moreover, two controls were performed: (1) untreated cells, an internal control to verify the drug-dependent effect; and (2) KCl 200 mM treated cells, in which a cytotoxic concentration was used, thus allowing us to verify the assay fidelity.
# [4] = tested on: rat BDNF 5′UTR exon 1; experiment: Dual luciferase assay, pN1-exon1-Fluc in SH-SY5Y cells; type: cell-based; details: undifferentiated SH-SY5Y, 24 h after transfection; KCL 50 mM, BDNF 50 ng/ml, GLU 20 μM, NE 50 μM
# Protocol: as §3, §4, §5, §6, §7
# [5] = tested on: rat BDNF 5′UTR exon 2B; experiment: Dual luciferase assay, pN1-exon2B-Fluc in SH-SY5Y cells; type: cell-based; details: undifferentiated SH-SY5Y, 24 h after transfection; KCL 50 mM, BDNF 50 ng/ml, GLU 20 μM, NE 50 μM
# Protocol: as §3, §4, §5, §6, §7
# [6] = tested on: rat BDNF 5′UTR exon 2C; experiment: Dual luciferase assay, pN1-exon2C-Fluc in SH-SY5Y cells; type: cell-based; details: undifferentiated SH-SY5Y; GLU 20 μM, NMDA 30 μM, NE 50 μM
# Protocol: as §3, §4
# Luciferase assay was performed according to the manufacturer's instructions (Promega). At the time of luciferase assay, the growth medium was removed from the cultured cells and a sufficient volume of PBS 1× was applied to wash the surface of the culture vessel. […] After lysis, 100 μl of Luciferase Assay Reagent II (LARII) were dispensed in each well and Firefly luciferase activity was measured using the Glo Max Multi luminometer with two injectors (Promega Corporation).
# (§8) After quantifying the Firefly luminescence, this reaction was quenched and simultaneously, the Renilla luciferase reaction was initiated by adding 100 μl Stop & Glo Reagent (Promega) to the same well. Then, Renilla luciferase activity was measured using the Glo Max Multi luminometer with two injectors (Promega Corporation). […]
# [7] = tested on: rat BDNF 5′UTR exon 4; experiment: Dual luciferase assay, pN1-exon4-Fluc in SH-SY5Y cells; type: cell-based; details: undifferentiated SH-SY5Y; KCL 50 mM, BDNF 50 ng/ml, GLU 20 μM, NE 50 μM, 5-HT 50 μM
# Protocol: as §3, §4, §5, §6, §7
# [8] = tested on: rat BDNF 5′UTR exon 8; experiment: Dual luciferase assay, pN1-exon8-Fluc in SH-SY5Y cells; type: cell-based; details: undifferentiated SH-SY5Y; BDNF 50 ng/ml, GLU 20 μM, 5-HT 50 μM
# Protocol: (§9) Plasmids were transfected into SH-SY5Y cells using lipofectamine 2000 (Invitrogen) to obtain a transient transfection. The relative quantity of DNA to lipofectamine has been determined and the optimal ratio was found at 0.2 μg of DNA and 0.5 μl of lipofectamine for each well of a 96 multiwell plate. At the time of transfection SH-SY5Y cells were around 70-75% of confluency. According to the Promega protocol for luciferase activity measurements, each construct-containing Fluc was transfected together with the normalizing Rluc construct with a 10:1 ratio (0.2 μg Fluc containing vector together with 0.02 μg of pN1-Rluc vector). The DNA (0.2 μg) was mixed with 25 μl of native MEM medium and incubated for 5 minutes at room temperature. […]
# (§10) Luciferase assay was performed according to the manufacturer's instructions (Promega). […] After lysis, 100 μl of Luciferase Assay Reagent II (LARII) were dispensed in each well and Firefly luciferase activity was measured using the Glo Max Multi luminometer with two injectors (Promega Corporation).
# as §8
# [9] = tested on: BDNF 3′UTR-short; experiment: Luciferase assay, pN1-Fluc-3′short in SH-SY5Y cells; type: cell-based, rat; details: transfected SHSY-5Y; GLU 20 μM
# Protocol: (§1) Basal and drug-induced translation of a luciferase reporter gene driven by BDNF short and long 3′UTR or coding region (CDS) sequences were measured.
# (§2) BDNF ([…]) was specifically employed for the stimulation of the 3′UTR long containing plasmid and NT3 ([…]) for 3′UTR short containing plasmid.
# [10] = tested on: rat BDNF 5′UTR exon 3; experiment: Dual luciferase assay, pN1-exon3-Fluc in SH-SY5Y cells; type: cell-based; details: undifferentiated SH-SY5Y; KCL 50 mM
# Protocol: as §9, §10, §8
# [11] = tested on: BDNF 3′UTR-long; experiment: Luciferase assay, pN1-Fluc-3′long in SH-SY5Y cells; type: cell-based, rat; details: transfected SHSY-5Y; KCl 50 mM, GLU 20 μM, DHPG 50 μM, AMPA 30 μM, NMDA 30 μM, AcH 30 μM, NE 50 μM, DOPA 40 μM, 5-HT 50 μM, BDNF 50 ng/μl
# Protocol: as §1, §2
# [12] = tested on: rat BDNF 5′UTR exon 7; experiment: Dual luciferase assay, pN1-exon7-Fluc in SH-SY5Y cells; type: cell-based; details: undifferentiated SH-SY5Y; NE 50 μM
# Protocol: as §9, §10, §8
molecule,measurement,setting,value
Cc1o[nH]c(=O)c1CC(N)C(=O)O (centres unmarked) [AMPA],translation of the other BDNF transcripts (other than exon2C),[1],not stimulated
"CCc1cccc(CC)c1NC(=O)N1Cc2n[nH]c(NC(=O)c3ccc(N4CCN(C)CC4)cc3)c2C1 [Aurora A inhibitor, PHA-680632]",prevention of KCl-induced increase in translation of pN1-exon6-Fluc-3′UTR long,[2],completely prevents
N[C@H](C(=O)O)c1cc(O)cc(O)c1 [DHPG],translation of the other BDNF transcripts (other than exon2C),[1],not stimulated
NCCc1ccc(O)c(O)c1 [Dopamine],"cell survival (MTT viability), neurotrophic effect",[3],small increase in cell survival
"CN(C)CCCn1cc(C2=C(c3c[nH]c4ccccc34)C(=O)NC2=O)c2ccccc21 [GF, 2-[1-(3-dimethylaminopropyl)-1H-indol-3-yl]-3-(1H-indol-3yl)-maleimide]",prevention of KCl-induced increase in translation of pN1-exon6-Fluc-3′UTR long,[2],not
"N[C@@H](CCC(=O)O)C(=O)O [Glutamate, Glutammate]",translation of exon1-containing transcripts (ratio F-luc/R-Luc),[4],significantly increase
same,translation of exon 2B-containing transcripts (ratio F-luc/R-Luc),[5],significantly increase
same,expression of exon 2C containing plasmid (ratio F-luc/R-Luc),[6],able to induce the expression
same,translation of exon 4-containing transcripts (ratio F-luc/R-Luc),[7],significantly increase
same,response of exon 8-containing plasmid (ratio F-luc/R-Luc),[8],responsive
same,translation of 3′UTR-short-containing transcripts,[9],striking increase
[Cl-].[K+] [KCl],translation of exon1-containing transcripts (ratio F-luc/R-Luc),[4],significantly increase
same,translation of exon 2B-containing transcripts (ratio F-luc/R-Luc),[5],significantly increase
same,expression of exon 3-containing plasmid (ratio F-luc/R-Luc),[10],induced
same,translation of exon 4-containing transcripts (ratio F-luc/R-Luc),[7],significantly increase
same,translation of 3′UTR-long-containing transcripts,[11],slightly but not significant increase
same,"increase in translation of pN1-exon6-Fluc-3′UTR long (Fluc/Rluc ratio, basal = 1.0)",[2]; end of 3 h depolarization with 20 mM KCl,three-fold increase
CN([C@@H](Cc1ccc(OS(=O)(=O)c2cccc3cnccc23)cc1)C(=O)N1CCN(c2ccccc2)CC1)S(=O)(=O)c1cccc2cnccc12 [KN62],prevention of KCl-induced increase in translation of pN1-exon6-Fluc-3′UTR long,[2],completely prevents
CN[C@H](CC(=O)O)C(=O)O [NMDA],expression of exon 2C containing plasmid (ratio F-luc/R-Luc),[6],enhancement
same,translation of the other BDNF transcripts (other than exon2C),[1],not stimulated
NC[C@H](O)c1ccc(O)c(O)c1 [Norepinephrine],translation of exon1-containing transcripts (ratio F-luc/R-Luc),[4],significantly increase
same,translation of exon 2B-containing transcripts (ratio F-luc/R-Luc),[5],significantly increase
same,expression of exon 2C containing plasmid (ratio F-luc/R-Luc),[6],increased
same,translation of exon 4-containing transcripts (ratio F-luc/R-Luc),[7],significantly increase
same,exon7 reporter expression (ratio F-luc/R-Luc),[12],increased
same,"cell survival (MTT viability), neurotrophic effect",[3],small increase in cell survival
"CC(C)(C)n1nc(-c2ccc(Cl)cc2)c2c(N)ncnc21 [PP2, 1-tert-butyl-3-(4-chlorophenyl)-1H-pyrazolo[3-4]pyrimidin-4-amine]",prevention of KCl-induced increase in translation of pN1-exon6-Fluc-3′UTR long,[2],completely prevents
NCCc1c[nH]c2ccc(O)cc12 [Serotonin],"translation of every BDNF exons-containing plasmid, with the exception of those containing exon 2A, 4 and 8",[1]; 5-HT 50 μM,able to increase the translation
"N#CC(=C(N)Sc1ccccc1N)C(C#N)=C(N)Sc1ccccc1N [U0126, 1,4-diamino-2,3-dicyano-1,4-bis(2-aminophenylthio)butadiene]",prevention of KCl-induced increase in translation of pN1-exon6-Fluc-3′UTR long,[2],completely prevents
B1,translation of exon1-containing transcripts (ratio F-luc/R-Luc),[4],significantly increase
same,translation of exon 2B-containing transcripts (ratio F-luc/R-Luc),[5],significantly increase
same,translation of exon 4-containing transcripts (ratio F-luc/R-Luc),[7],significantly increase
same,response of exon 8-containing plasmid (ratio F-luc/R-Luc),[8],responsive
same,"cell survival (MTT viability), neurotrophic effect",[3],small increase in cell survival
B2,"cell survival (MTT viability), neurotrophic effect",[3],small increase in cell survival
